Data on two compounds can be found in patent US20180042765A1, “METHODS AND DEVICES FOR TREATING POSTERIOR OCULAR DISORDERS” (CLEARSIDE BIOMEDICAL, INC., priority 2014, published 2018).

Entries after “also recorded” stand apart in the source; their conditions may differ.

One series deals with patients. To be noted: in vivo; cited from earlier work.
Series [1] concerns patients with non-infectious uveitis. Put plainly: Phase 1/2 open-label safety and tolerability study of TA administered to the suprachoroidal space. It is filed as in vivo, human. The protocol:
A clinical trial was designed to evaluate the safety and tolerability of a single injection of TA (triamcinolone acetonide administered as TRIESCENCE™) into the SCS in patients diagnosed with non-infectious uveitis.
Each mL of the sterile, aqueous suspension of TRIESENCE™ provides […] of triamcinolone acetonide, with sodium chloride for isotonicity, 0.5% (w/v) carboxymethylcellulose sodium and 0.015% polysorbate 80. It also contains potassium chloride, calcium chloride (dihydrate), magnesium chloride (hexahydrate), sodium acetate (trihydrate), sodium citrate (dihydrate) and water for injection. Sodium hydroxide and hydrochloric acid may be present to adjust pH to a target value 6-7.5.
The primary purpose of this trial was to evaluate the overall safety and tolerability of treating uveitis patients (non-infectious uveitis—intermediate, posterior or pan-uveitis) by administering a triamcinolone into the SCS via a single suprachoroidal injection. Eligibility criteria include adult patients with non-infectious uveitis experiencing either macular edema or vitreous haze, a common complication of uveitis. This was in order to determine whether SCS administration of TA could improve patient vision through reducing the effects of either condition. For inclusion in the trial, patients must have IOP (intra-ocular pressure) of no greater than 22 mmHg
Each patient enrolled received a single SCS microinjection of 4.0 mg (100 μL) of triamcinolone acetonide of day 1. Patients returned for a follow-up examination on the day after the injection and then for eight additional evaluations at weeks 1, 2, 4, 8, 12, 16, 20 and 26 following the treatment. Patients may receive other treatment at any time during the trial with any accepted therapy based on their physician's best medical judgment, if their condition deteriorates or if the physician otherwise determines it to be advisable. In the event a patient received other treatment, the patient was followed for the duration of the trial for safety purposes, but efficacy measures were no longer considered thereafter.
Patients received the single SCS injection 4 mm posterior to limbus and received an ultrasound assessment of scleral thickness immediately after injection.
Endpoints. The main safety endpoint was changes from baseline in intraocular pressure (TOP). Also assessed was an efficacy endpoint relating to changes in best-corrected visual acuity, or BCVA, as well as changes in excess retinal thickness.

For series [2], the system named is porcine model of acute posterior uveitis (intravitreal LPS). Put plainly: Porcine model of acute uveitis: ocular histopathology. The class given is in vivo, pigs.
Series [3] shares this test system. Put plainly: Porcine model of acute uveitis: wide-field ocular fundus digital photography. It is filed as in vivo, pigs. The note with it: 72 hours. As to the method:
Twenty four hours after the induction of acute uveitis by intraocular lipopolysaccharide (LPS) injection (Day 0) into the vitreous, 50 μL of balanced salt solution (BSS, Group 1) or triamcinolone (CLS-TA) (2 mg, Group 3) was injected into the suprachoroidal space (SCS). In Groups 2 and 4, oral prednisone (1 mg/kg/day, Group 2 or 0.1 mg/kg/day, Group 4) was dosed on Day 0, and repeated every 24 hours until euthanasia on day 3. Eyes were examined every 24 hours, which included measuring inflammation scores (Modified Hackett-McDonald) and intraocular pressure (TOP) until euthanasia 3 days after initiation of treatment. Safety assessments and histopathology were performed on all eyes. Electroretinography and wide-field fundus photography was performed at -24 hours, time 0 (before treatment) and on Day 3. Histopathology was performed on eyes after euthanasia. Wide-field Ocular Fundus Digital Photography. With the pigs anesthetized at times -24, 0 and 72 hours, and pupils dilated with tropicamide 1%, the ocular fundus was photographed with standardized illumination and focus using a wide-field digital imaging system ([…], Clarity Medical Systems, Pleasanton, Calif.).

Series [4] shares this test system. Put plainly: Porcine model of acute uveitis: intraocular pressure (TonoVet). The class given is in vivo, pigs. The note with it: Day 3, low dose 0.1 mg/kg/day PO, P<0.0065. The protocol:
Twenty four hours after the induction of acute uveitis by intraocular lipopolysaccharide (LPS) injection (Day 0) into the vitreous, 50 μL of balanced salt solution (BSS, Group 1) or triamcinolone (CLS-TA) (2 mg, Group 3) was injected into the suprachoroidal space (SCS). In Groups 2 and 4, oral prednisone (1 mg/kg/day, Group 2 or 0.1 mg/kg/day, Group 4) was dosed on Day 0, and repeated every 24 hours until euthanasia on day 3. Eyes were examined every 24 hours, which included measuring inflammation scores (Modified Hackett-McDonald) and intraocular pressure (TOP) until euthanasia 3 days after initiation of treatment. Safety assessments and histopathology were performed on all eyes. Electroretinography and wide-field fundus photography was performed at −24 hours, time 0 (before treatment) and on Day 3. Histopathology was performed on eyes after euthanasia.
Treatment. […]
Intraocular Pressure. Intraocular pressure (TOP) was measured with the pigs awake and hand restrained at −144, −96, −24, 0, 24, 48, and 72 hours (see FIG. 1) using a TonoVet Tonometer (iCare, Finland). […] After the six measurements, the mean IOP was shown on the display providing the IOP that was recorded.
Data and Statistical Analysis. […] Results and probabilities were calculated using computerized statistical software (JMP 10, SAS Inc. Cary, N.C.).

The test system is the same in series [5]. Put plainly: Porcine model of acute uveitis: modified Hackett-McDonald ocular inflammation score. The class given is in vivo, pigs.

Take `CC1(C)O[C@@H]2C[C@H]3[C@@H]4CCC5=CC(=O)C=C[C@]5(C)[C@@]4(F)[C@@H](O)C[C@]3(C)[C@]2(C(=O)CO)O1` [TA, triamcinolone acetonide]: the “patients with cataracts and increases in IOP levels” value in the series on patients is 20-60%. Also, the “patients with meaningful improvements in BCVA” value in series [1] (26 weeks after single SCS injection of TA on Day 1) is listed as “Four of the eight patients”. Further, the “gain in BCVA” value in series [1] (26 weeks after single SCS injection, four of the eight patients) is “about 3 lines”. For the same compound, the “decrease in retinal thickness (OCT), SCS injection compared to sub-tenon injection” value in series [1] (one patient, bilateral uveitis, 4 mg TA SCS in one eye, 20 mg TA sub-tenon in the other eye) was “greater decrease in retinal thickness”. The “OCT appearance of eye treated with TA via suprachoroidal injection vs Ozurdex treated eye” value in series [1] (one patient, bilateral uveitis, four to six weeks after treatment) is recorded as “looks better than the intravitreally Ozurdex treated eye”. The “average reduction in CME” value in series [1] (seven patients, single TA injection into the SCS) is listed as “about 20%”. The deaths result in series [1] (single SCS injection 4.0 mg (100 μL) TA, eight patients) is “No deaths”. Moreover, in series [1] (week 26, single TA injection into the SCS, seven patients with macular edema), the “mean reduction in macular edema (retinal thickness)” value was “over 100 microns”.

`C[C@]12C=CC(=O)C=C1CC[C@@H]1[C@@H]2C(=O)C[C@@]2(C)[C@H]1CC[C@]2(O)C(=O)CO` [prednisone]: the “mean histologic score of the posterior segment compared with low dose oral prednisone (Group 4)” value in series [2] (high dose 1 mg/kg/day PO, P<0.013) is recorded as “lower than the mean score of eyes treated with low dose oral prednisone”. The “mean histologic score of the anterior segment compared with saline (Group 1)” value in series [2] (oral 0.1 mg/kg/day (Group 4)) and in series [2] (oral 1 mg/kg/day (Group 2)) was “not significantly different than Group 1” throughout. For the same compound, the values for the wide-field fundus images result in series [3] (high dose 1 mg/kg/day PO) and in series [3] (low dose 0.1 mg/kg/day PO) were “near pre-treatment appearance” and “only slightly improved over vehicle treated eyes”, respectively. The “mean IOP compared with the other groups” value in series [4] is “significantly lower than Groups 1, 2, and 3; also recorded: significantly lower IOP than all other groups”. Besides, the “mean cumulative inflammation score compared with Group 1 (BSS)” value in series [5] (Day 3 (72 hours), high dose 1 mg/kg/day PO, P<0.034) is listed as “significantly lower”. For the same compound, the “mean cumulative inflammation score compared with saline treated eyes” value in series [5] (any treatment time, low dose 0.1 mg/kg/day PO) was “not significantly different than saline treated eyes”. In addition, in series [5] (high dose 1 mg/kg/day PO), the “reduction of ocular inflammation relative to low dose prednisone” value is listed as “more effective than low dose prednisone”. Moreover, the “time to reduction of inflammation” value in series [5] (high dose 1 mg/kg/day PO) is reported as “three days”.
